# Source: patent US20130303460A1, “PEPTIDES AND COMPOSITIONS FOR THE TREATMENT OF NEUROECTODERMAL DERIVED TUMORS AND RETINOBLASTOMA” (Biokine Therapeutics Ltd., priority 2011, published 2013)
# Assays:
# Y79 Retinoblastoma cells = assay: Survival of Y79 retinoblastoma cells (PI staining, FACS); assay type: cell-based, human; details: 4, 8, 20 and 40 micromolar, 24 hr; PI staining FACS (FIG. 3)
# Protocol: Y79: Retinoblastoma cells from primary tumor with familial history of Retinoblastoma;
# All cell lines were cultured in RPMI1640 (Gibco BRL life technologies)+10% FCS, 1% L-Glutamine, 1% PS (Penicillin, Streptomycin) (Biological Industries, Kibbutz Beth Haemek, Israel) at 37° C., 5% CO2.
# 4F-benzoyl-TN14003 (designated BKT140) effect on Y79 Retinoblastoma cells survival.
# [1] = tested on: Neuroblastoma cancer cell lines (SHY-5Y, SK-N-BE and NHH-NB-11); assay: Neuroblastoma cell viability, CellTiter 96 AQueous Non-Radioactive Cell Proliferation Assay; assay type: cell-based, human; details: 72 hours, 10% FCS; compared to other CXCR4 antagonists (e.g. AMD3100) (FIG. 4)
# Protocol: Neuroblastoma cancer cell lines (SHY-5Y, SK-N-BE and NHH-NB-11, FIGS. 4A, 4B, and 4C, respectively) were seeded at 2×10^4 viable cells/100 μl per well into a 96-well plate in triplicates in a medium supplemented with 10% FCS and incubated with different concentrations of BKT140, PLK1, AurA or AMD3100 for 72 hours. The plate was than tested for cell viability using the CellTiter 96® AQueous Non-Radioactive Cell Proliferation Assay.
# [2] = tested on: Neuroblastoma cancer cell lines (SHY-5Y, SK-N-BE and NHH-NB-11); assay: Neuroblastoma cell death, PI+ cells by FACS and morphological assays; assay type: cell-based, human; details: 1% FCS, twenty hr, SK-N-BE and NHH-NB-11 (FIGS. 5, 6)
# Protocol: The effect of BKT140 or AMD3100 on the proliferation of neuroblastoma cancer cell lines was tested by seeding the cells at 2×10^4 cells/1 ml per well into a 24-well plate in medium supplemented with 1% FCS. Twenty hr later the cells stained with PI (Sigma, St. Louis, Mo.), and the number of PI+cells (death cells) was determined using FACS analysis (as described above) (see, FIG. 6A).
# [3] = tested on: Neuroblastoma tumor cells injected into the adrenal; assay: Neuroblastoma tumor growth in mice, residual disease model; assay type: in vivo, NOD/SCID mice; details: 300 μg per mouse from day 3 until day 30 after inoculation; residual disease model (FIG. 7)
# Protocol: (§1) NOD/SCID mice were maintained under defined flora conditions at the Hebrew University Pathogen-Free Animal Facility. All experiments were approved by the Animal Care Committee of the Hebrew University. 10^6 Neuroblastoma tumor cells were injected into the adrenal of the mice ([…] per mouse). As control, mice were treated with PBS. Tumor growth was monitored weekly. MRI testing was performed on a horizontal 4.7 T Bruker Biospec spectrometer, using a birdcage coil.
# [4] = tested on: Neuroblastoma tumor cells injected into the adrenal; assay: Neuroblastoma tumor growth in mice, established (treatment) disease model; assay type: in vivo, NOD/SCID mice; details: subcutaneously 300 μg per mouse until day 30, started when tumor size reached ~0.04 cm^2 (FIG. 8)
# Protocol: as §1
# [5] = tested on: epithelial tumor cells (e.g., breast and prostate carcinoma and glioblastoma); assay: Effect on epithelial tumor cells; assay type: cell-based; details: summary statement, example not given
substance,measurement,setting,value
4F-benzoyl-Arg-Arg-Nal-Cys-Tyr-Cit-Lys-DLys-Pro-Tyr-Arg-Cit-Cys-Arg-NH2 [4F-benzoyl-TN14003],cell death / survival of Y79 retinoblastoma cells,Y79 Retinoblastoma cells,stimulate cell death of retinoblastoma cells
same,cell viability of neuroblastoma cells,[1],remarkably low cell viability
same,neuroblastoma cell death (PI+ cells),[2],stimulate neuroblastoma cell death
same,tumor growth,[3],delayed and in some cases inhibited tumor growth
same,tumor growth,[4],delayed and in some cases inhibited tumor growth
same,growth of epithelial tumor cells,[5]; breast and prostate carcinoma and glioblastoma,in some cases even stimulated the growth of epithelial tumor cells
same,epithelial tumor cell death,[5],did not induce epithelial tumor cell death
